Experimental data from article PMC11581222, “Inhibition of CCl4-induced liver inflammation and fibrosis by a NEU3 inhibitor” (PLOS ONE, 2024).
Like-named read-outs stand apart in the source and are kept apart here.

What was measured:
[1] = molecular target: Adrenergic β2 (Homo sapiens, UniProt P07550); test: Eurofins radioligand receptor binding inhibition; set-up: dose or concentration left out as unconfirmed
[2] = molecular target: Adrenergic α1B (Rattus norvegicus, UniProt P15823); test: Eurofins radioligand receptor binding inhibition; settings: 10 μM 2AP
[3] = tested on: GABAA Muscimol; test: Eurofins radioligand receptor binding inhibition; settings: 10 μM 2AP
[4] = molecular target: CYP2C19 (Homo sapiens, UniProt P33261); test: Eurofins CYP450 inhibition, 3-Cyano-7-ethoxycoumarin substrate; type: in vitro ADME; settings: recombinant CYP2C19, probe 3-cyano-7-ethoxycoumarin, 10 μM 2AP
[5] = tested on: Imidazoline I2, Central; test: Eurofins radioligand receptor binding inhibition; settings: 10 μM 2AP
[6] = tested on: human recombinant NEU3; set-up: method as in PMID 33144389; settings: cited from earlier work
[7] = molecular target: Adrenergic α1A (Rattus norvegicus, UniProt P43140); test: Eurofins radioligand receptor binding inhibition; settings: 10 μM 2AP
[8] = molecular target: CYP2C8 (Homo sapiens, UniProt P10632); test: Eurofins CYP450 inhibition, dibenzyl fluorescein substrate; type: in vitro ADME; settings: recombinant CYP2C8, probe dibenzyl fluorescein, 10 μM 2AP
[9] = tested on: GABAA Flunitrazepam; test: Eurofins radioligand receptor binding inhibition; settings: 10 μM 2AP
[10] = tested on: Glutamate; test: Eurofins radioligand receptor binding inhibition; settings: 10 μM 2AP
[11] = molecular target: CYP2B6 (Homo sapiens, UniProt P20813); test: Eurofins CYP450 inhibition, 3-Cyano-7-ethoxycoumarin substrate; type: in vitro ADME; settings: recombinant CYP2B6, probe 3-cyano-7-ethoxycoumarin, 10 μM 2AP
[12] = molecular target: hERG potassium channel (Homo sapiens, UniProt Q12809); test: Eurofins radioligand receptor binding inhibition; settings: 10 μM 2AP
[13] = tested on: mouse recombinant NEU3; set-up: method as in PMID 33144389; settings: pH 6.9, read-out: IC50, inhibition of release of active TGF-β1 from human latent TGF-β1; cited from earlier work
[14] = molecular target: Adrenergic β1 (Homo sapiens, UniProt P08588); test: Eurofins radioligand receptor binding inhibition; settings: 10 μM 2AP
[15] = tested on: CCl4-induced liver inflammation and fibrosis; settings: for body weight, CCl4-induced weight loss: 1 mg/kg 2AP i.p. daily from day 21
[16] = tested on: Sodium Channel, Site 2; test: Eurofins radioligand receptor binding inhibition; settings: 10 μM 2AP
[17] = molecular target: Histamine H1 (Homo sapiens, UniProt P35367); test: Eurofins radioligand receptor binding inhibition; settings: 10 μM 2AP
[18] = molecular target: Dopamine D2S (Homo sapiens, UniProt P14416); test: Eurofins radioligand receptor binding inhibition; set-up: dose or concentration left out as unconfirmed
[19] = molecular target: Sigma σ1 (Homo sapiens, UniProt Q99720); test: Eurofins radioligand receptor binding inhibition; settings: 10 μM 2AP
[20] = molecular target: CYP3A4 (Homo sapiens, UniProt P08684); test: Eurofins CYP450 inhibition, 7-Benzyloxy-4-(trifluoromethyl)-coumarin substrate; type: in vitro ADME; settings: recombinant CYP3A4, probe 7-benzyloxy-4-(trifluoromethyl)-coumarin, 10 μM 2AP
[21] = molecular target: CYP2C9 (Homo sapiens, UniProt P11712); test: Eurofins CYP450 inhibition, 3-Cyano-7-ethoxycoumarin substrate; type: in vitro ADME; settings: recombinant CYP2C9, probe 3-cyano-7-ethoxycoumarin, 10 μM 2AP
[22] = molecular target: Nicotinic Acetylcholine α1, Bungarotoxin (Homo sapiens, UniProt P02708+P07510+Q07001); test: biochemical; type: binding; set-up: dose or concentration left out as unconfirmed
[23] = molecular target: Nicotinic Acetylcholine α3β4 (Homo sapiens, UniProt P30926+P32297); test: Eurofins radioligand receptor binding inhibition; settings: 10 μM 2AP
[24] = molecular target: CYP1A2 (Homo sapiens, UniProt P05177); test: Eurofins CYP450 inhibition, 3-Cyano-7-ethoxycoumarin substrate; type: in vitro ADME; settings: recombinant CYP1A2, probe 3-cyano-7-ethoxycoumarin, 10 μM 2AP
Protocol: (§1) CYP450 enzymes and a panel of receptors were assessed for inhibition by 10 μM 2AP using HitProfilingScreen + CYP450 LeadHunter Panel at Eurofins (Eurofins Panlabs Discovery Services, New Taipei City, Taiwan). Briefly, human recombinant CYP450 enzymes were preincubated at 37°C for 15 minutes with 10 μM 2AP. Enzyme activity was assessed by cleavage of the CYP450 fluorogenic substrates dibenzyl fluorescein (aromatase / CYP19A1, CYP2C8), 3-Cyano-7-ethoxycoumarin (CYP1A2, CYP2B6, CYP2C19, CYP2C9, and CYP2D6), or 7-Benzyloxy-4-(trifluoromethyl)-coumarin (CYP3A4), as described previously. Inhibition of receptor binding was assessed using a panel of receptors expressed on cell lines or using tissue extracts and preincubated at 25°C for 30–120 minutes with 10 μM 2AP. Cells or tissue extracts were then incubated with radiolabeled specific ligands a described (https://www.eurofinsdiscovery.com/catalog/hitprofilingscreen-cyp450-leadhunter-panel-tw/PP115) and inhibition of binding was reported (S2 Table).

[25] = molecular target: Adrenergic α2A (Homo sapiens, UniProt P08913); test: Eurofins radioligand receptor binding inhibition; settings: 10 μM 2AP
[26] = tested on: Potassium Channel [KATP]; test: Eurofins radioligand receptor binding inhibition; settings: 10 μM 2AP
[27] = molecular target: Muscarinic M2 (Homo sapiens, UniProt P08172); test: Eurofins radioligand receptor binding inhibition; set-up: dose or concentration left out as unconfirmed
[28] = molecular target: Adenosine A1 (Homo sapiens, UniProt P30542); test: Eurofins radioligand receptor binding inhibition; set-up: dose or concentration left out as unconfirmed
[29] = tested on: bleomycin-induced pulmonary fibrosis; settings: cited from earlier work; for pulmonary fibrosis: injections, male mice
[30] = molecular target: Muscarinic M3 (Homo sapiens, UniProt P20309); test: Eurofins radioligand receptor binding inhibition; settings: 10 μM 2AP
[31] = tested on: aromatase/CYP19A1, CYP2C8, CYP1A2, CYP2B6, CYP2C19, CYP2C9, CYP2D6 and CYP3A4 (mean over 8 enzymes); test: Eurofins CYP450 panel, mean over 8 enzymes; type: in vitro ADME; settings: human, recombinant CYP450 enzymes; 10 μM 2AP; mean over 8 CYP450 enzymes; read-out: percent inhibition of CYP450 enzymes, mean ± SD, n = 8
[32] = molecular target: Opiate μ (OP3, MOP) (Homo sapiens, UniProt P35372); test: Eurofins radioligand receptor binding inhibition; set-up: dose or concentration left out as unconfirmed
[33] = tested on: Calcium Channel L-Type, Dihydropyridine; test: Eurofins radioligand receptor binding inhibition; settings: 10 μM 2AP
[34] = molecular target: Adenosine A2A (Homo sapiens, UniProt P29274); test: Eurofins radioligand receptor binding inhibition; settings: 10 μM 2AP
[35] = molecular target: Dopamine D1 (Homo sapiens, UniProt P21728); test: Eurofins radioligand receptor binding inhibition; set-up: dose or concentration left out as unconfirmed
[36] = molecular target: Cannabinoid CB1 (Homo sapiens, UniProt P21554); test: Eurofins radioligand receptor binding inhibition; set-up: dose or concentration left out as unconfirmed
[37] = tested on: 28 receptors; test: Eurofins panel of 28 receptors, inhibition of binding; settings: 10 μM 2AP
[38] = molecular target: Norepinephrine (NET) (Homo sapiens, UniProt P23975); test: Eurofins radioligand receptor binding inhibition; settings: 10 μM 2AP
Protocol: as §1

[39] = molecular target: Serotonin (5-Hydroxytryptamine) 5-HT2B (Homo sapiens, UniProt P41595); test: Eurofins radioligand receptor binding inhibition; settings: 10 μM 2AP
Protocol: as §1

[40] = molecular target: CYP2D6 (Homo sapiens, UniProt P10635); test: Eurofins CYP450 inhibition, 3-Cyano-7-ethoxycoumarin substrate; type: in vitro ADME; settings: recombinant CYP2D6, probe 3-cyano-7-ethoxycoumarin, 10 μM 2AP
[41] = molecular target: Aromatase / CYP19A1 (Homo sapiens, UniProt P11511); test: Eurofins CYP450 inhibition, dibenzyl fluorescein substrate; type: biochemical; settings: 10 μM 2AP
[42] = molecular target: Prostanoid EP4 (Homo sapiens, UniProt P35408); test: Eurofins radioligand receptor binding inhibition; settings: 10 μM 2AP
[43] = tested on: high fat diet (HFD)-induced liver inflammation, weight gain and steatosis; set-up: method as in PMID 33039353; settings: injections, cited from earlier work
[44] = tested on: MCD diet-induced liver fibrosis; set-up: method as in PMID 33378413; settings: cited from earlier work
[45] = CCl4+2AP vs CCl4, male and female mice
[46] = treatments vs control (oil) mice

Chain of CYP2B6 (P20813 whole entry): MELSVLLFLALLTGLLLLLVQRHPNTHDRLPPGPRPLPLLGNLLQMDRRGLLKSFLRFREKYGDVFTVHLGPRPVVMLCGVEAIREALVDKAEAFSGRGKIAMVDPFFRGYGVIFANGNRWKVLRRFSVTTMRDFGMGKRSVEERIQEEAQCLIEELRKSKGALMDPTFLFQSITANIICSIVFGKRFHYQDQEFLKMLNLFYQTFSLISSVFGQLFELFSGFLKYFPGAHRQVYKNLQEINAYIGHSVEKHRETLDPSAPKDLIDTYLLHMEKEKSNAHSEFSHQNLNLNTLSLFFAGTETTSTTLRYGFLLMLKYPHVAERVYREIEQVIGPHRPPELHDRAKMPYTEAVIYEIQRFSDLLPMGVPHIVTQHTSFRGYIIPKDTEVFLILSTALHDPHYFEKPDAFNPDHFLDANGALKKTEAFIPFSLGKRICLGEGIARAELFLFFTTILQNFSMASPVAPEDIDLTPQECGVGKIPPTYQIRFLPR
Chain of Norepinephrine (NET) (P23975 whole entry): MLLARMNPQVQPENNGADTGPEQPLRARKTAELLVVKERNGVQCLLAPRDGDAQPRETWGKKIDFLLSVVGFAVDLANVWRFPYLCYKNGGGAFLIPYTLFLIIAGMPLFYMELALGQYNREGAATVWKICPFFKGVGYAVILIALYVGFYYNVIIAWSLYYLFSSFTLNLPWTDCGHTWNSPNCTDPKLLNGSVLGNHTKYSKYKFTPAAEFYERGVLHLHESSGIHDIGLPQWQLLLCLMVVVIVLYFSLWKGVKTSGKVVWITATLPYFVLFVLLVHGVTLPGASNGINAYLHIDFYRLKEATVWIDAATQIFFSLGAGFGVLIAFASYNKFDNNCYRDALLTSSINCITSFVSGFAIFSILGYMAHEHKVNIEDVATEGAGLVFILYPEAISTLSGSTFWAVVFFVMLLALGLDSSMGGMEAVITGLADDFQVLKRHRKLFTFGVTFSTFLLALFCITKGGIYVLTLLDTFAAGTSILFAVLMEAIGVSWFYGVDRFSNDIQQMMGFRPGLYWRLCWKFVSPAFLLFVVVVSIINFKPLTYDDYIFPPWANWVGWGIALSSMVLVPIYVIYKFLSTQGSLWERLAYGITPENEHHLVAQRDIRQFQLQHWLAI
Chain of Adrenergic α2A (P08913 whole entry): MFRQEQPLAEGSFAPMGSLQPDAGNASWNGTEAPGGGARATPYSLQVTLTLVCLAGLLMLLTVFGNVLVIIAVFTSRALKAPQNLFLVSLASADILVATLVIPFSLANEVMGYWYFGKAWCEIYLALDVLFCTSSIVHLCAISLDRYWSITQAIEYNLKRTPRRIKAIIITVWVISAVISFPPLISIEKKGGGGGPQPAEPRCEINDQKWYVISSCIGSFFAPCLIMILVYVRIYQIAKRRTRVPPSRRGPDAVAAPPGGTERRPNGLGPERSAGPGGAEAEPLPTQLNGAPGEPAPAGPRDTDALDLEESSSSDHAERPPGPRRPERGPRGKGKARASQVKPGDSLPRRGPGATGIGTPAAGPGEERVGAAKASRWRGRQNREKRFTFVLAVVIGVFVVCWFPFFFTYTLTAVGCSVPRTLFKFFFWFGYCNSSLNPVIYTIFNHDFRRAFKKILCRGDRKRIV
Chain of Adrenergic α1A (P43140 whole entry): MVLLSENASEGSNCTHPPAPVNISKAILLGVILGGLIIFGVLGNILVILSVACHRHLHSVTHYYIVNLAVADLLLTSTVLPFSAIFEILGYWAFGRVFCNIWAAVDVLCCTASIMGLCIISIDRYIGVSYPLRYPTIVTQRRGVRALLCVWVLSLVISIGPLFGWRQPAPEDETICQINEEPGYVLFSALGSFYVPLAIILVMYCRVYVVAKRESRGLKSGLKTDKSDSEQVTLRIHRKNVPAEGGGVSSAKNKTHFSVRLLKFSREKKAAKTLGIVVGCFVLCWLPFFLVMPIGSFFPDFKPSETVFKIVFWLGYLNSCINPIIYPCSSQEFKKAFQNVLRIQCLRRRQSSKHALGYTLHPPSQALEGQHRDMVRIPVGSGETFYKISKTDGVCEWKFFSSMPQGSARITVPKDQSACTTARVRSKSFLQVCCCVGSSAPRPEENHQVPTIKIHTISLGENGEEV
Chain of Sigma σ1 (Q99720 whole entry): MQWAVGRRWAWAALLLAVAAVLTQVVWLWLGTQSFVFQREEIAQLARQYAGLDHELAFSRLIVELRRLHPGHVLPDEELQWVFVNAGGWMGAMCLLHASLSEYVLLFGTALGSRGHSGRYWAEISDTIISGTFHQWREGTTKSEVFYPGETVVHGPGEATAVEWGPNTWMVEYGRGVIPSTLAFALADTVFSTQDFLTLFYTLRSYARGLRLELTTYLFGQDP
Chain of CYP2C19 (P33261 whole entry): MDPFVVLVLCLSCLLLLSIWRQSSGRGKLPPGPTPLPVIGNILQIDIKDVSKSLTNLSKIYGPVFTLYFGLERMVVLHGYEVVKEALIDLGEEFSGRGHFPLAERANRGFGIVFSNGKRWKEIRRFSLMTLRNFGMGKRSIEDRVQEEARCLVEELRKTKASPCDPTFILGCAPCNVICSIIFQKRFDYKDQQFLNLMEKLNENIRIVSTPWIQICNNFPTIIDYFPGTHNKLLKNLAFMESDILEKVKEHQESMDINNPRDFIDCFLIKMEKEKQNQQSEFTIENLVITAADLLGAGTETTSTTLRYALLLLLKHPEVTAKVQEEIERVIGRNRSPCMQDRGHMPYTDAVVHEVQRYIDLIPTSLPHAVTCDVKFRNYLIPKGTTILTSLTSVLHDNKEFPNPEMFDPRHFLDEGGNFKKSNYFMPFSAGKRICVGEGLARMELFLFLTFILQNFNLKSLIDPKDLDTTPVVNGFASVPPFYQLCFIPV
Chain of Dopamine D1 (P21728 whole entry): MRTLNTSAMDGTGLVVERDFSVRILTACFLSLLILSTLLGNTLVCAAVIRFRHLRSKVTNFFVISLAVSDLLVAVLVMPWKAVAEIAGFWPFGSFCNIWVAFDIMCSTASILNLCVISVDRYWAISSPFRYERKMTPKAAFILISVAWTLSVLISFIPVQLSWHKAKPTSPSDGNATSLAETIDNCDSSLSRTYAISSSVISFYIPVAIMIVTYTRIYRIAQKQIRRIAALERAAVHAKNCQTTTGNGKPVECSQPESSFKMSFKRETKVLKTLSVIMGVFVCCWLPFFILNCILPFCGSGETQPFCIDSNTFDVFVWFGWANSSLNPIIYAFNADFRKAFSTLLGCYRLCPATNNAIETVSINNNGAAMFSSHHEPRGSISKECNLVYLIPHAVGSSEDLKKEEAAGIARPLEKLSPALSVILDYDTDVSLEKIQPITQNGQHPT
Chain of Opiate μ (OP3, MOP) (P35372 whole entry): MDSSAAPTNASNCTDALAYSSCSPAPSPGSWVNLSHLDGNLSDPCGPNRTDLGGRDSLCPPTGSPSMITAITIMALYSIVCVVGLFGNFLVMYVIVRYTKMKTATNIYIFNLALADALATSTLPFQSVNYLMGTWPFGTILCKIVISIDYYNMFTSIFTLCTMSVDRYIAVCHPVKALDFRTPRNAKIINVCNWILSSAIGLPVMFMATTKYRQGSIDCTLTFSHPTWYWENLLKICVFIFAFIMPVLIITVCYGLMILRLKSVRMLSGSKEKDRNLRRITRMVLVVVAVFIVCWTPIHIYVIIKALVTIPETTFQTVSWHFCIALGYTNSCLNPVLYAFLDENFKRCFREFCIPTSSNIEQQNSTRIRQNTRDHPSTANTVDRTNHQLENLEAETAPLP
Chain of Cannabinoid CB1 (P21554 whole entry): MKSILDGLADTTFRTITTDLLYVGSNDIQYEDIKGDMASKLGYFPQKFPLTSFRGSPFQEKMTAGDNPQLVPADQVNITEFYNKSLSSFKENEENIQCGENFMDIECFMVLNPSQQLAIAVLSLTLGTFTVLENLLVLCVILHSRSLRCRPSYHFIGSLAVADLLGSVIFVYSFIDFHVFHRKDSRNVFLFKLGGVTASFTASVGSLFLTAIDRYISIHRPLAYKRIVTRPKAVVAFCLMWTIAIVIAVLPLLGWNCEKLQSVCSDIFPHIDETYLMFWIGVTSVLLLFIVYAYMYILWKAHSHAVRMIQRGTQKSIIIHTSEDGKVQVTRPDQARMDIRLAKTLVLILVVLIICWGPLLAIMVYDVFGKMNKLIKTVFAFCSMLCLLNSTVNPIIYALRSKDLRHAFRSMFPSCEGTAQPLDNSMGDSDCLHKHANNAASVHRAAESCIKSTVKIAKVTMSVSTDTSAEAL
Chain of Serotonin (5-Hydroxytryptamine) 5-HT2B (P41595 whole entry): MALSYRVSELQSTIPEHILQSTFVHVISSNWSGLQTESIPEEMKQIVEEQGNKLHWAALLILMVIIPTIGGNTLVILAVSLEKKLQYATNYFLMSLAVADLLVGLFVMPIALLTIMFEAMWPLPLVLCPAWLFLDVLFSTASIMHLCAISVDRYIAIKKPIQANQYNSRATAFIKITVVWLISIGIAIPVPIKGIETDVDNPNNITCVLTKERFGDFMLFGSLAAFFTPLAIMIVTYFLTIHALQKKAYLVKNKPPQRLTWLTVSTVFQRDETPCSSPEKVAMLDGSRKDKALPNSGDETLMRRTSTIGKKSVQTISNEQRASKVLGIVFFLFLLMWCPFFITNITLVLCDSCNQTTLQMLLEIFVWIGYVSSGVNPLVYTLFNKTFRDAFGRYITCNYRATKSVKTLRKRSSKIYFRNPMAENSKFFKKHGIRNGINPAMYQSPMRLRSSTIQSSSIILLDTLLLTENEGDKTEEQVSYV
Chain of Dopamine D2S (P14416 1-414 isoform P14416-2): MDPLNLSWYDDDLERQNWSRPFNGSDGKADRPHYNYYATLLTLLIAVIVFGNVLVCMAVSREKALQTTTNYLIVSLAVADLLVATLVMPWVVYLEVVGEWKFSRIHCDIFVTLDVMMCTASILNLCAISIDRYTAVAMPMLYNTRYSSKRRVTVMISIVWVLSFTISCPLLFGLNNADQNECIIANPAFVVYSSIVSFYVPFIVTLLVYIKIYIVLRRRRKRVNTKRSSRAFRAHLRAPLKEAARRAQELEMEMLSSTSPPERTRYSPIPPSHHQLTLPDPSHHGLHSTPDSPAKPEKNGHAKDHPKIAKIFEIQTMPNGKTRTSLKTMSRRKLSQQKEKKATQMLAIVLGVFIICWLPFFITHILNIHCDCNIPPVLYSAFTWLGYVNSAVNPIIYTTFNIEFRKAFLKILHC

SMILES: CC(=O)c1ccccn1 [2AP, 2-acetyl pyridine]
- inhibition [1]: 5%
- inhibition at 10 µM [2]: 2%
- % Inhibition [3]: 4%
- inhibition at 10 µM [4]: 3%
- % Inhibition [5]: 3%
- IC50 ([6]; human recombinant NEU3, pH 6.9, read-out: IC50, inhibition of release of active TGF-β1 from human latent TGF-β1): 40 ± 6 nM
- inhibition at 10 µM [7]: 5%
- inhibition at 10 µM [8]: 0%
- % Inhibition [9]: -2%
- % Inhibition [10]: 27%
- inhibition at 10 µM [11]: 0%
- inhibition at 10 µM [12]: 4%
- IC50 [13]: 800 ± 170 nM
- inhibition at 10 µM [14]: 3%
- toxic effects of daily injections ([15]; 1 mg/kg 2AP i.p. daily, days 21-42): did not appear to have any obvious toxic effects
- body weight, CCl4-induced weight loss ([15]; CCl4+2AP vs CCl4, female mice): response of female mice to 2AP treatment
- body weight, CCl4-induced weight loss ([15]; CCl4+2AP vs CCl4, male and female combined, days 39 and 40): less weight loss
- body weight, CCl4-induced weight loss ([15]; CCl4+2AP vs CCl4, male mice): not apparent in male mice
- number of S100A8/MRP8 positive cells (neutrophils) in liver ([15]; CCl4+2AP vs CCl4, female mice): reduction in the number of S100A8/MRP8 positive cells
- liver NEU3 staining [15, 45]: attenuated the CCl4-induced NEU3 staining
- liver desialylation, PNA lectin staining [15, 45]: reduced PNA staining
- liver fibrosis, picrosirius red staining [15, 45]: decreased picrosirius red staining
- liver inflammation, vessels with accumulation of immune cells (H&E) [15, 45]: attenuated the CCl4 induced inflammation
- number of Mac2 positive cells around liver vessels [15, 45]: decreased the number of Mac2 positive cells in the vessel areas
- number of Mac2 positive cells in liver [15, 45]: decreased the number of Mac2 positive cells
- steatosis, oil red O staining of liver [15, 45]: no significant differences in oil red O staining
- liver hydroxyproline levels ([15]; CCl4+2AP vs CCl4, male mice): reduced hydroxyproline levels
- kidney, spleen, heart, or brown fat weights at day 42 ([15]; mouse, in vivo): no significant effect
- liver NEU3 staining ([15]; mouse, in vivo): no significant differences in NEU3 staining
- liver desialylation, PNA lectin staining ([15]; mouse, in vivo): did not significantly change PNA staining
- liver hydroxyproline levels ([15]; mouse, in vivo): no significant differences in hydroxyproline levels
- liver weight at day 42 ([15]; mouse, in vivo): higher liver weights
- lung weight at day 42 ([15]; mouse, in vivo): increased lung weights
- number of Mac2 positive cells around liver vessels ([15]; mouse, in vivo): no significant differences in the number of Mac2 positive cells in vessel areas
- number of Mac2 positive cells in liver ([15]; mouse, in vivo): no significant differences in the number of Mac2 positive cells
- number of S100A8 positive cells in liver ([15]; mouse, in vivo): no significant differences in the number of S100A8 positive cells
- overt effects on mice (body weight over 42 days) ([15]; mouse, in vivo): no overt effects on the mice
- steatosis, oil red O staining of liver ([15]; mouse, in vivo): no significant change in the oil red O staining
- white fat weight at day 42 ([15]; mouse, in vivo): reduced white fat
- number of CD3 T cells in liver [15, 46]: no significant treatment-induced difference
- number of CLEC4F positive Kupffer cells in liver [15, 46]: no significant treatment-induced difference
- number of Mac2 positive cells in parenchymal areas of the liver ([15]; treatments vs control mice): no significant treatment-induced difference
- % Inhibition [16]: 13%
- inhibition at 10 µM [17]: 8%
- inhibition [18]: -4%
- inhibition at 10 µM [19]: 13%
- inhibition at 10 µM [20]: -2%
- inhibition at 10 µM [21]: 1%
- inhibition [22]: 5%
- inhibition at 10 µM [23]: -2%
- inhibition at 10 µM [24]: 3%
- inhibition at 10 µM [25]: -5%
- % Inhibition [26]: -11%
- inhibition [27]: 4%
- inhibition [28]: 10%
- pulmonary fibrosis [29]: attenuate bleomycin-induced pulmonary fibrosis
- inhibition at 10 µM [30]: 1%
- inhibition at 10 µM [31]: 1.5 ± 1.2%
- inhibition [32]: 0%
- % Inhibition [33]: 7%
- inhibition at 10 µM [34]: 0%
- inhibition [35]: -5%
- inhibition [36]: -1%
- inhibitory effect on an additional 28 receptors [37]: no inhibitory effect
- inhibition at 10 µM [38]: 7%
- inhibition at 10 µM [39]: 12%
- inhibition at 10 µM [40]: 2%
- inhibition at 10 µM [41]: 1%
- inhibition at 10 µM [42]: 7%

SMILES: CC(=O)N[C@H]1[C@H]([C@H](O)[C@H](O)CO)OC(C(=O)O)=C[C@@H]1O [DANA, N-acetyl-2,3-dehydro-2-deoxyneuraminic acid]
- IC50 ([6]; NEU3 species not specified for DANA, read-out: inhibition of active TGF-β1 release): > 100000 nM
- HFD induced weight gain and steatosis [43]: inhibited HFD induced weight gain and steatosis
- HFD-induced liver inflammation ([43]; male mice): attenuate high fat diet (HFD)-induced liver inflammation
- desialylation in lung fibrosis [29]: reversed desialylation in lung fibrosis
- pulmonary fibrosis [29]: attenuate bleomycin-induced pulmonary fibrosis
- MCD diet-induced liver fibrosis [44]: inhibits methionine and choline-deficient (MCD) diet-induced liver fibrosis
